{
  "source": "patent US6479435B1",
  "about": "“Diaryl ethers and processes for their preparation and herbicidal and desiccant compositions containing them” (ISK Americas Incorporated, priority 1997, dated 2002)",
  "type_in_all_cases": "in vivo",
  "key": {"[1]": {"system": "Johnsongrass (Sorghum halepense, SORHA)", "assay": "Pre-emerge greenhouse herbicide test, phytotoxicity rating", "settings": "1000 g ai/ha, 14 days after application, rating scale 0-100", "text": "(§1) A standard greenhouse herbicide activity screening system was used to evaluate the herbicidal efficacy and crop safety of these test compounds. Six broadleaf weed species including redroot pigweed (Amaranthus retroflexus, AMARE), velvetleaf (Abutilon theophrasti, ABUTH), sicklepod (Cassia obtusifolia, CASOB), ivyleaf morningglory (Ipomoea hederacea, IPOHE), lambsquarters (Chenopodium album, CHEAL) and common ragweed (Ambrosia artemisiifolia L., AMBEL) were used as test species. Four grass weed species including green foxtail (Setaria viridis, SETVI), barnyardgrass (Echinochloa crusgalli, ECHCG), Johnsongrass (Sorghum halepense, SORHA), and large crabgrass (Digitaria sanguinalis, DIGSA) were also used. In addition, three crop species, field corn (Zea mays L., var. Dekalb 535, CORN), soybean (Glycine max L., var. Pella 86, SOY), and upland rice (Oryza sp., var.Tebonnet, RICE) were included.\n(§2) All plants were grown in 10 cm square plastic pots which were filled with a sandy loam soil mix. For preemerge tests, seeds were planted one day prior to application of the test compounds. Immediately after application, test units of the pre-emerge applications were watered at the soil surface to incorporate the test materials. Subsequently, these test units were bottom-watered.\n(§3) All test compounds were dissolved in acetone and applied to the test units in a volume of 187 l/ha. Test materials were applied at rates ranging from 125 g ai/ha to 1000 g ai/ha using a track sprayer equipped with a TJ8001E even flow flat fan spray nozzle. Plants were arranged on a shelf so that the top of the canopy (post-emerge) or top of the soil surface (pre-emerge) was 40-45 cm below the nozzle. Pressurized air was used to force the test solution through the nozzle as it was mechanically advanced (via electrically driven chain drive) over the top of all test plants/pots. This application simulates a typical commercial field herbicide application.\n(§4) At 14 days after application of the test materials, phytotoxicity ratings were recorded. A rating scale of 0-100 was used as previously described in Research Methods in Weed Science, 2nd edition, B. Truelove, Ed., Southern Weed Science Society, Auburn University, Auburn, Ala., 1977. Briefly, “0” corresponds to no damage and “100” corresponds to complete death of all plants in the test unit. This scale was used both to determine efficacy against weed species and damage to crop species. Herbicide activity data for various compounds of this invention, which are shown by compound number in Tables 1-9, are shown in Tables 13 and 14."}, "[2]": {"system": "barnyardgrass (Echinochloa crusgalli, ECHCG)", "assay": "Pre-emerge greenhouse herbicide test, phytotoxicity rating", "settings": "1000 g ai/ha, 14 days after application, rating scale 0-100", "text": "as §1, §2, §3, §4"}, "[3]": {"system": "green foxtail (Setaria viridis, SETVI)", "assay": "Pre-emerge greenhouse herbicide test, phytotoxicity rating", "settings": "1000 g ai/ha, 14 days after application, rating scale 0-100", "text": "as §1, §2, §3, §4"}, "[4]": {"system": "ivyleaf morningglory (Ipomoea hederacea, IPOHE)", "assay": "Pre-emerge greenhouse herbicide test, phytotoxicity rating", "settings": "1000 g ai/ha, 14 days after application, rating scale 0-100", "text": "as §1, §2, §3, §4"}, "[5]": {"system": "lambsquarters (Chenopodium album, CHEAL)", "assay": "Pre-emerge greenhouse herbicide test, phytotoxicity rating", "settings": "1000 g ai/ha, 14 days after application, rating scale 0-100", "text": "as §1, §2, §3, §4"}, "[6]": {"system": "large crabgrass (Digitaria sanguinalis, DIGSA)", "assay": "Pre-emerge greenhouse herbicide test, phytotoxicity rating", "settings": "1000 g ai/ha, 14 days after application, rating scale 0-100", "text": "as §1, §2, §3, §4"}, "[7]": {"system": "redroot pigweed (Amaranthus retroflexus, AMARE)", "assay": "Pre-emerge greenhouse herbicide test, phytotoxicity rating", "settings": "1000 g ai/ha, 14 days after application, rating scale 0-100", "text": "as §1, §2, §3, §4"}, "[8]": {"system": "sicklepod (Cassia obtusifolia, CASOB)", "assay": "Pre-emerge greenhouse herbicide test, phytotoxicity rating", "settings": "1000 g ai/ha, 14 days after application, rating scale 0-100", "text": "as §1, §2, §3, §4"}, "[9]": {"system": "velvetleaf (Abutilon theophrasti, ABUTH)", "assay": "Pre-emerge greenhouse herbicide test, phytotoxicity rating", "settings": "1000 g ai/ha, 14 days after application, rating scale 0-100", "text": "as §1, §2, §3, §4"}, "[10]": {"system": "field corn (Zea mays L., var. Dekalb 535, CORN)", "assay": "Pre-emerge greenhouse test, crop damage rating", "settings": "1000 g ai/ha, 14 days after application, rating scale 0-100", "text": "as §1, §2, §3, §4"}, "[11]": {"system": "upland rice (Oryza sp., var.Tebonnet, RICE)", "assay": "Pre-emerge greenhouse test, crop damage rating", "settings": "1000 g ai/ha, 14 days after application, rating scale 0-100", "text": "as §1, §2, §3, §4"}, "[12]": {"system": "soybean (Glycine max L., var. Pella 86, SOY)", "assay": "Pre-emerge greenhouse test, crop damage rating", "settings": "1000 g ai/ha, 14 days after application, rating scale 0-100", "text": "as §1, §2, §3, §4"}, "[13]": {"system": "Johnsongrass (Sorghum halepense, SORHA)", "assay": "Post-emerge greenhouse herbicide test, phytotoxicity rating", "settings": "1000 g al/ha, 14 days after application", "text": "as §1, §3\n(§5) In the post-emerge test, a commercial non-ionic surfactant was also included (0.25% v/v) to enhance wetting of the leaf surfaces Qf target plants at rates ranging from 63 g ai/ha to 1000 g ai/ha. For post-emerge tests, seeds were planted 8-21 days prior to the test to allow emergence and good foliage development prior to application of the test substances. At the time of the post-emerge application, plants of all species were usually at the 2-3 leaf stage of development. Post-emerge test units were always bottom-watered.\nas §4"}, "[14]": {"system": "barnyardgrass (Echinochloa crusgalli, ECHCG)", "assay": "Post-emerge greenhouse herbicide test, phytotoxicity rating", "settings": "1000 g al/ha, 14 days after application", "text": "as §1, §3, §5, §4"}, "[15]": {"system": "green foxtail (Setaria viridis, SETVI)", "assay": "Post-emerge greenhouse herbicide test, phytotoxicity rating", "settings": "1000 g al/ha, 14 days after application", "text": "as §1, §3, §5, §4"}, "[16]": {"system": "ivyleaf morningglory (Ipomoea hederacea, IPOHE)", "assay": "Post-emerge greenhouse herbicide test, phytotoxicity rating", "settings": "1000 g al/ha, 14 days after application", "text": "as §1, §3, §5, §4"}, "[17]": {"system": "lambsquarters (Chenopodium album, CHEAL)", "assay": "Post-emerge greenhouse herbicide test, phytotoxicity rating", "settings": "1000 g al/ha, 14 days after application", "text": "as §1, §3, §5, §4"}, "[18]": {"system": "large crabgrass (Digitaria sanguinalis, DIGSA)", "assay": "Post-emerge greenhouse herbicide test, phytotoxicity rating", "settings": "1000 g al/ha, 14 days after application", "text": "as §1, §3, §5, §4"}, "[19]": {"system": "redroot pigweed (Amaranthus retroflexus, AMARE)", "assay": "Post-emerge greenhouse herbicide test, phytotoxicity rating", "settings": "1000 g al/ha, 14 days after application", "text": "as §1, §3, §5, §4"}, "[20]": {"system": "sicklepod (Cassia obtusifolia, CASOB)", "assay": "Post-emerge greenhouse herbicide test, phytotoxicity rating", "settings": "1000 g al/ha, 14 days after application", "text": "as §1, §3, §5, §4"}, "[21]": {"system": "velvetleaf (Abutilon theophrasti, ABUTH)", "assay": "Post-emerge greenhouse herbicide test, phytotoxicity rating", "settings": "1000 g al/ha, 14 days after application", "text": "as §1, §3, §5, §4"}, "[22]": {"system": "field corn (Zea mays L., var. Dekalb 535, CORN)", "assay": "Post-emerge greenhouse test, crop damage rating", "settings": "1000 g al/ha, 14 days after application", "text": "as §1, §3, §5, §4"}, "[23]": {"system": "upland rice (Oryza sp., var.Tebonnet, RICE)", "assay": "Post-emerge greenhouse test, crop damage rating", "settings": "1000 g al/ha, 14 days after application", "text": "as §1, §3, §5, §4"}, "[24]": {"system": "soybean (Glycine max L., var. Pella 86, SOY)", "assay": "Post-emerge greenhouse test, crop damage rating", "settings": "1000 g al/ha, 14 days after application", "text": "as §1, §3, §5, §4"}},
  "data": [
    {"smiles": "N#Cc1cccnc1Oc1cc(-n2c(=O)cc3n(c2=O)CCC3)c(F)cc1Cl", "note": "[Compound 5-9]", "values": [
      {"measurement": "phytotoxicity rating SORHA", "setting": "[1]", "result": 90},
      {"measurement": "phytotoxicity rating ECHCG", "setting": "[2]", "result": 0},
      {"measurement": "phytotoxicity rating SETVI", "setting": "[3]", "result": 90},
      {"measurement": "phytotoxicity rating IPOHE", "setting": "[4]", "result": 100},
      {"measurement": "phytotoxicity rating CHEAL", "setting": "[5]", "result": 100},
      {"measurement": "phytotoxicity rating DIGSA", "setting": "[6]", "result": 90},
      {"measurement": "phytotoxicity rating AMARE", "setting": "[7]", "result": 80},
      {"measurement": "phytotoxicity rating CASOB", "setting": "[8]", "result": 30},
      {"measurement": "phytotoxicity rating ABUTH", "setting": "[9]", "result": 100},
      {"measurement": "crop damage rating CORN", "setting": "[10]", "result": 0},
      {"measurement": "crop damage rating RICE", "setting": "[11]", "result": 50},
      {"measurement": "crop damage rating SOY", "setting": "[12]", "result": 50},
      {"measurement": "SORHA phytotoxicity rating (0-100)", "setting": "[13]", "result": 0},
      {"measurement": "ECHCG phytotoxicity rating (0-100)", "setting": "[14]", "result": 0},
      {"measurement": "SETVI phytotoxicity rating (0-100)", "setting": "[15]", "result": 10},
      {"measurement": "IPOHE phytotoxicity rating (0-100)", "setting": "[16]", "result": 90},
      {"measurement": "CHEAL phytotoxicity rating (0-100)", "setting": "[17]", "result": 70},
      {"measurement": "DIGSA phytotoxicity rating (0-100)", "setting": "[18]", "result": 0},
      {"measurement": "AMARE phytotoxicity rating (0-100)", "setting": "[19]", "result": 50},
      {"measurement": "CASOB phytotoxicity rating (0-100)", "setting": "[20]", "result": 30},
      {"measurement": "ABUTH phytotoxicity rating (0-100)", "setting": "[21]", "result": 100},
      {"measurement": "CORN crop damage rating (0-100)", "setting": "[22]", "result": 5},
      {"measurement": "RICE crop damage rating (0-100)", "setting": "[23]", "result": 25},
      {"measurement": "SOY crop damage rating (0-100)", "setting": "[24]", "result": 30}
    ]}
  ]
}
